Data reported in patent US20180071188A1, “COMPOSITION FOR THE PERMANENT DEFORMATION OF HAIR HAVING REDUCED ODOUR” (The Procter & Gamble Company, priority 2016, published 2018).

What was measured:
[1] = density of malodor suppressant; assay type: physicochemical; conditions: 23° C., 1.013 bar
Procedure: All densities relate to a temperature of 23° C. and a pressure of 1.013 bar. Density measurements are typically performed via determining the weight and the volume of the compound to be measured, or according to any other processes known to the skilled person.

[2] = Test Procedure 2: panel test rating thiol malodor of permanent shaping premix mixed with malodor suppressant system; conditions: scale 0 to 5 (0=no thiol smell, 5=harsh thiol smell); 5 panelists; premix + 0.7 wt.-% suppressant system; same rating immediately and 25 min after mixing
Procedure: A […] performed with 5 panelists with trained expertise in the classification of thiol malodour. The panelists received a mixture of the permanent shaping premix and 0.7 wt.-% of one malodor suppressant system, as described above (stirred by a single operator for all tests). Immediately and 25 min after mixing, the panelists were asked to rate the thiol malodor according to a scale of 0 to 5 (0=no thiol smell, 5=harsh thiol smell), the mixture being passed from panelist to panelist with an additional stirring for each of the panelists. The same odor rating is obtained immediately after mixing and 25 min after mixing.

[3] = distribution coefficient log P (octanol/water); assay type: physicochemical; conditions: raw material of malodor suppressant system
Text: In the fields of organic and medicinal chemistry, a distribution (P) coefficient is the ratio of concentrations of a compound in the two phases of a mixture of two immiscible solvents at equilibrium. […] One of the solvents chosen is water while the second is octanol. […] The partition coefficient is the ratio of concentrations of un-ionized compound between the two solutions. The logarithm of the ratio of the concentrations of the un-ionized solute in the solvents is called log P:
The log P (octanol/water) is referred hereinafter as “log P”, unless otherwise specified.

| Compound | density [1] [g/mL] | log P (octanol/water) [3] | logP ([3]; octanol/water) | Odor (thiol malodor rating) [2] | logP [3] |
| --- | --- | --- | --- | --- | --- |
| O=C1CCCCCCCCC/C=C/CCCO1 [S2, Habanolide] | 0.901 | 4.77 | – | 4 | – |
| CCCCCCCCCCCCCC(=O)OC(C)C [S1, isopropylmyristate] | 0.864 | – | 7.41 | 3 | – |
| CC1COCc2cc3c(cc21)C(C)(C)C(C)C3(C)C (centres unmarked) [S3, Galaxolide] | 0.946 | – | – | 1-2 | 5.93 |

Further lines, with some results ahead:

| density [1] [g/mL] | log P (octanol/water) [3] | logP ([3]; octanol/water) | Compound | Odor (thiol malodor rating) [2] | logP [3] |
| --- | --- | --- | --- | --- | --- |
| 1.01 | 4.90 | – | Operanide [S4] | 2 | – |
| 0.971 | 5.79 | – | CC1COC(C)(c2ccc3c(c2)C(C)(C)CCC3(C)C)O1 (centres unmarked) [S5, Okoumal] | 3 | – |
| 1.129 | – | – | O=C(OCc1ccccc1)c1ccccc1 [S6, Benzyl benzoate] | 3 | – |
